Data from ChEMBL document CHEMBL5653631, “A Potent and Selective ULK1 Inhibitor Suppresses Autophagy and Sensitizes Cancer Cells to Nutrient Stress” (iScience, 2018).
One block for each molecule: values may come before it.

How the values were obtained:
[1] = biological target: Mitogen-activated protein kinase 9 (Homo sapiens) (UniProt P45984); assay: Inhibition of human recombinant JNK2 at 500 nM in presence of ATP by radiometric assay relative to control
[2] = biological target: Serine/threonine-protein kinase 38-like (Homo sapiens) (UniProt Q9Y2H1); assay: Inhibition of human recombinant NDR2 at 500 nM in presence of ATP by radiometric assay relative to control
[3] = biological target: T1, Serine/threonine-protein kinase ULK2 (Homo sapiens) (UniProt Q8IYT8); assay: Inhibition of human recombinant ULK2 at 15 nM in presence of ATP by radiometric assay relative to control
T1 sequence (whole entry): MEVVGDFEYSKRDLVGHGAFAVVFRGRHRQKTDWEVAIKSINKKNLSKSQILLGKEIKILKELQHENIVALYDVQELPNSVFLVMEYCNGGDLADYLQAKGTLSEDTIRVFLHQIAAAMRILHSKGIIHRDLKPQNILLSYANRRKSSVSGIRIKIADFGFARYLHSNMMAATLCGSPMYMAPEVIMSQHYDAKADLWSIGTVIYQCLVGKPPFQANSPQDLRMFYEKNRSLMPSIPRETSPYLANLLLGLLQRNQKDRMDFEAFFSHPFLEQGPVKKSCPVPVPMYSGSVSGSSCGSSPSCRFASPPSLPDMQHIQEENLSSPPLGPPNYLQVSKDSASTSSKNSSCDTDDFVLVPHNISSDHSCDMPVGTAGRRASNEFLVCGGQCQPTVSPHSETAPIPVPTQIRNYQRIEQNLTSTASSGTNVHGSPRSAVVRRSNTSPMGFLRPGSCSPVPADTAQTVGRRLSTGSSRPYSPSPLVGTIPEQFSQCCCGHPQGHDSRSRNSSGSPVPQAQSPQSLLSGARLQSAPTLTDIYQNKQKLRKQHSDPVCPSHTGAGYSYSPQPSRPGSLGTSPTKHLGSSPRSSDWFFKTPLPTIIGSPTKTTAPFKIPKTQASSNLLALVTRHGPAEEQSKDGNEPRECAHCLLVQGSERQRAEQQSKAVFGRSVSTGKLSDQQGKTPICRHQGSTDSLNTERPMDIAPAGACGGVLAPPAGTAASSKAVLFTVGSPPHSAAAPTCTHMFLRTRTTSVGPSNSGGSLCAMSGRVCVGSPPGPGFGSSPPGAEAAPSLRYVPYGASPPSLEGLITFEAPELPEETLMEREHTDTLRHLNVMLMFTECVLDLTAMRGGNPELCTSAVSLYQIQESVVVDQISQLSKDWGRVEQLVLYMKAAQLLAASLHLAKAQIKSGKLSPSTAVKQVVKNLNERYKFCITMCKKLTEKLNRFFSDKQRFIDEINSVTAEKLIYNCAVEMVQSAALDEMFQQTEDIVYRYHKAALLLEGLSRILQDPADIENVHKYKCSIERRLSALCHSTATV

[4] = biological target: NT-3 growth factor receptor (Homo sapiens) (UniProt Q16288); assay: Inhibition of human recombinant TRKC at 15 nM related to control ULK1
[5] = biological target: T2, MAP/microtubule affinity-regulating kinase 4 (Homo sapiens) (UniProt Q96L34); assay: Inhibition of human recombinant MARK4 at 15 nM related to control ULK1
T2 sequence (whole entry): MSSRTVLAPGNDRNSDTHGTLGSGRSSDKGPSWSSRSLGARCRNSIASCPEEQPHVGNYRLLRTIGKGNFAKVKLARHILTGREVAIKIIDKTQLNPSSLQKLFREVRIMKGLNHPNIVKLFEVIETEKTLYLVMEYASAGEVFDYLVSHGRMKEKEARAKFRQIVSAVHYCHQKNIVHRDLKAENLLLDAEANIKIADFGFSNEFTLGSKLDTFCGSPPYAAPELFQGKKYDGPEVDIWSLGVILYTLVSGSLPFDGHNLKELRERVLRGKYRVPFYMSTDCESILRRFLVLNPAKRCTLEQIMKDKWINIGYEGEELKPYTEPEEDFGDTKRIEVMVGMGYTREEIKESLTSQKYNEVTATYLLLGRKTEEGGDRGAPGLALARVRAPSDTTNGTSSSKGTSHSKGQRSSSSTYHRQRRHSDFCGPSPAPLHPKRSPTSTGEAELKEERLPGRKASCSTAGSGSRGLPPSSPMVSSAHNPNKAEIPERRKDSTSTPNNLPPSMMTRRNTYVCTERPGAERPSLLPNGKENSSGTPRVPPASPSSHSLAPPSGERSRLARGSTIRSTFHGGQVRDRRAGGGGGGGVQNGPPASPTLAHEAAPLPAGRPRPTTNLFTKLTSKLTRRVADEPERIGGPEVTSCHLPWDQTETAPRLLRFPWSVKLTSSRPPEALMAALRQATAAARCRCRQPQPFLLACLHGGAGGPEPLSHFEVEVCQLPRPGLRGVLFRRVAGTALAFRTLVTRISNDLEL

[6] = biological target: Dual specificity tyrosine-phosphorylation-regulated kinase 1A (Homo sapiens) (UniProt Q13627); assay: Inhibition of human recombinant DYRK1A at 15 nM related to control ULK1
[7] = biological target: Serine/threonine-protein kinase 10 (Homo sapiens) (UniProt O94804); assay: Inhibition of human recombinant LOK at 15 nM related to control ULK1
[8] = biological target: Serine/threonine-protein kinase PLK1 (Homo sapiens) (UniProt P53350); assay: Inhibition of human recombinant PLK1 at 40 nM in presence of ATP by radiometric assay relative to control
Chain of Serine/threonine-protein kinase PLK1 (Homo sapiens) (P53350 whole entry): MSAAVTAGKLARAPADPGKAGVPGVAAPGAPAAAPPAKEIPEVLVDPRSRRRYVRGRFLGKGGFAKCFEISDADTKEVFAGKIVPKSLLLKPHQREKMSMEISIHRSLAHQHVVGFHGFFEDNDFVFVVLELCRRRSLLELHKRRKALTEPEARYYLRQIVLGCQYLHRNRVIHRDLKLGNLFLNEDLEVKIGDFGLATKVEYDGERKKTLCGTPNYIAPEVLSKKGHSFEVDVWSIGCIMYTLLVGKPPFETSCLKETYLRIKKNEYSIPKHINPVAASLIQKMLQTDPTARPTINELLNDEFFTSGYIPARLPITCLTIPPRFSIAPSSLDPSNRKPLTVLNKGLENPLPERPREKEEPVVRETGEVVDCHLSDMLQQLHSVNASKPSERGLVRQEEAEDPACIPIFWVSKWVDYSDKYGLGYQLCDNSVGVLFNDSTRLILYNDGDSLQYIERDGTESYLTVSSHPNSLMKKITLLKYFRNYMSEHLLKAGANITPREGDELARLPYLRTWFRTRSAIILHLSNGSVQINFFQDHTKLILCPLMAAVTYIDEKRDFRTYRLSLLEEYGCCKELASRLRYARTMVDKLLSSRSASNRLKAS

Chain of Serine/threonine-protein kinase 38-like (Homo sapiens) (Q9Y2H1 2-464 limits assumed): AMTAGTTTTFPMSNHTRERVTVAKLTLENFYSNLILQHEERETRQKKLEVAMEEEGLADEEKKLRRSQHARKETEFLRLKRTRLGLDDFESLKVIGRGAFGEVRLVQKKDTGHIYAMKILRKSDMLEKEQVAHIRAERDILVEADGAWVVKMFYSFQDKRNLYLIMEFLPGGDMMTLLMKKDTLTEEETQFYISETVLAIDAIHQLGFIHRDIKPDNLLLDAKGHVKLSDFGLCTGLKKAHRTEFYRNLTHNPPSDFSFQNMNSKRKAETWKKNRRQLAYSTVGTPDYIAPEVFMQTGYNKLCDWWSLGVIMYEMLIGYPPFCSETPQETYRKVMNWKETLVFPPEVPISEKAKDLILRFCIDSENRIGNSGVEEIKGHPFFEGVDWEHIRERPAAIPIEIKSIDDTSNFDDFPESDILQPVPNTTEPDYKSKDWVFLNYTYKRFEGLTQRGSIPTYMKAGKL
Chain of NT-3 growth factor receptor (Homo sapiens) (Q16288 32-839 limits assumed): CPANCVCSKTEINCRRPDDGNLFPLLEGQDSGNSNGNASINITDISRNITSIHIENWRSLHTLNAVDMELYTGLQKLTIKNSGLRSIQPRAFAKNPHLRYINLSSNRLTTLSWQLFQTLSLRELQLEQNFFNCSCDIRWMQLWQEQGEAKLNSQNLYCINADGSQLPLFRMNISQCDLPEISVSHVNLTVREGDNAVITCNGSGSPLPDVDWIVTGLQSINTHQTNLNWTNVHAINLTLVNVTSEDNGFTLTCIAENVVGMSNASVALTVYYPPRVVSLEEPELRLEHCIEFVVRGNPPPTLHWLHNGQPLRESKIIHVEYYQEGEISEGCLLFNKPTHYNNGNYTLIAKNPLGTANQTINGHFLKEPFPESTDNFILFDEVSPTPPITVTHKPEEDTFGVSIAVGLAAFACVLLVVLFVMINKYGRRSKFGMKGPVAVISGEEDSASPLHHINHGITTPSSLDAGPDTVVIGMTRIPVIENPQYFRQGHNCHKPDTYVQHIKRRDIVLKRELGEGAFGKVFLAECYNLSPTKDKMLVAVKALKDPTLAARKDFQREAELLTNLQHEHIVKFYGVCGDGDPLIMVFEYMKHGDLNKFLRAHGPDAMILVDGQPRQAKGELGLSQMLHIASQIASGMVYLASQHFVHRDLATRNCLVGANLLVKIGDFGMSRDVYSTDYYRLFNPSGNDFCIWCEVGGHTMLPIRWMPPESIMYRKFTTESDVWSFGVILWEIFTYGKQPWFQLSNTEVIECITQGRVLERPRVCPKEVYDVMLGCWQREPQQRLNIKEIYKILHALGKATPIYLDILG
Chain of Mitogen-activated protein kinase 9 (Homo sapiens) (P45984 whole entry, looked up): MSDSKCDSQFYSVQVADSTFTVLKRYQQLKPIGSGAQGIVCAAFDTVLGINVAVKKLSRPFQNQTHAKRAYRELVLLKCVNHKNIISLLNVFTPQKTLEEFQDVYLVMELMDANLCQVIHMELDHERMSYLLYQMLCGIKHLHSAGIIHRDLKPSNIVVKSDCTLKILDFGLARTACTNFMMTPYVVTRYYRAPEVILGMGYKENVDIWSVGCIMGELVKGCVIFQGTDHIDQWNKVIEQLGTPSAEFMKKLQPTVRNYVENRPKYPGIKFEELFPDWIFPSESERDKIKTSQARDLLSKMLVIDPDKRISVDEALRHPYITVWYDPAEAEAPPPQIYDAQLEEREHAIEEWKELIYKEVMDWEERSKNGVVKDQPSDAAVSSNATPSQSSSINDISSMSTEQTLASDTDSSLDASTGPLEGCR
Chain of Serine/threonine-protein kinase 10 (Homo sapiens) (O94804 whole entry, looked up): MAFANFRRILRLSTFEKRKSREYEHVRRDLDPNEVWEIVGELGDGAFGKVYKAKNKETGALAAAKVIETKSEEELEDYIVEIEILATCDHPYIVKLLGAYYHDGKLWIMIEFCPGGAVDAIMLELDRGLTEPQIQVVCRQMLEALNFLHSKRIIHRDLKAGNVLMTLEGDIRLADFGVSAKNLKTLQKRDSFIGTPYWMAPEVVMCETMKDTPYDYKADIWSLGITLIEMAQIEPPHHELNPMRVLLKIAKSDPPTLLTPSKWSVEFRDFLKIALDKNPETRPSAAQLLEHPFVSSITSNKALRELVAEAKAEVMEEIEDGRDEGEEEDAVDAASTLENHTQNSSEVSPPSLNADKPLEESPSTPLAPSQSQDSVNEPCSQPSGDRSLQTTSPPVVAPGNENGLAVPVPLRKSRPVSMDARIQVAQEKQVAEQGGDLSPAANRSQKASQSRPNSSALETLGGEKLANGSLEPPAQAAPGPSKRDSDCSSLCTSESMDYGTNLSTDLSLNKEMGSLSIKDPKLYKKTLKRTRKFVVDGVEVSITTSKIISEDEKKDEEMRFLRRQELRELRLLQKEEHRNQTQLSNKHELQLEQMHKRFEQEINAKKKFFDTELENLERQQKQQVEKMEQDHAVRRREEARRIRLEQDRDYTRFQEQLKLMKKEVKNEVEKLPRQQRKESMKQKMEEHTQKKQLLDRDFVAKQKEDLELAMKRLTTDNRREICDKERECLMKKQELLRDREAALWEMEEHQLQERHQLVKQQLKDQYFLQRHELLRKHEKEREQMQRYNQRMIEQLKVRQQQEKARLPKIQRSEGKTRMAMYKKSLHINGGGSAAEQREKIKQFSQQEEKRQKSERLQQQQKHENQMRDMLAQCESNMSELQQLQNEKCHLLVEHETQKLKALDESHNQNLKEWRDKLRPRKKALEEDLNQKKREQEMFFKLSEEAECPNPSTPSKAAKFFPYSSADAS

inhibition [1]: 0% | inhibition [2]: 15%
Structure (SMILES): CNC(=O)c1ccccc1Oc1nc(Nc2cc(OC)c(OC)c(OC)c2)ncc1Br

inhibition [3]: 73% | fold change (FC) [4]: 0 | fold change (FC) [5]: 0.48 | fold change (FC) [6]: 0.83 | fold change (FC) [7]: 0
Structure (SMILES): CC(C)[C@H](NC(=O)c1cc(-c2cnn3cc(-c4ccc(OCCN5CCCCC5)cc4)cnc23)cs1)C(F)(F)F

inhibition [8]: 0%
Structure (SMILES): O=C(N[C@@H](C1CC1)C(F)(F)F)c1cc(-c2cnn3cc(-c4ccc(F)cc4)cnc23)cs1
